This is an account of results in a melting point compilation (Tetko et al.; mined from patent text by program, amines drawn as free bases though some values may be those of a salt).

By melting point is commonly meant the temperature, or range, at which the solid turns liquid.

Regarding `Cc1cccc(OS(=O)(=O)c2ccc(N3CCCNC3=O)cc2)c1`, the melting point lay in the range of 145 to 147 °C.

Compound `COc1ccc(CCN(O)C(=O)C(N)=O)cc1OC` yielded a melting point of 143 to 144 °C.

Turning to `NC[C@@H]1CCCc2cc(S(=O)(=O)Nc3cccc(F)c3)ccc21`, the melting point was in the range of 122 to 123 °C.

Consider `CCC(=O)N1CCC(NC(=O)Nc2ccccc2F)CC1`, for which the melting point is 127 to 130 °C.

Turning to `CC(C)C(c1cncnc1C(F)(F)F)N(C)C(=O)Cc1ccccc1` (stereo not given), the melting point is 106 to 109 °C.

Turning to `CC/C(CO)=C(/c1ccccc1)c1ccc(O)cc1`, the melting point fell in the range of 112 to 116 °C.

Compound `CC(NSc1nc2ccccc2s1)c1ccccc1` (stereo not given) came in with a melting point of 50 to 53 °C.

For the compound `O=C(Nc1ccc2nc(CN3CCCCC3)ccc2c1)c1ccc(-c2ccccc2)cc1`, the melting point lay in the range of 186 to 188 °C.

Regarding `CCCN(CCC)C(=O)c1cc2ccccc2c(-c2ccccc2Cl)n1`, the melting point is 101 °C.

As to `NC(=O)CN1C(=O)C[C@@H]2CCCC[C@@H]21` (relative stereo), the melting point lay within 145 to 146 °C.

`Nc1ccc(N2CCOC2=O)c(Cl)c1`: the melting point fell in the range of 151 to 153 °C.

`Cc1cc(C(N)=O)ncc1C(c1c(F)ccc(F)c1F)S(=O)(=O)CCC(F)(F)F` (stereo not given): the melting point lay in the range of 190 to 191 °C.

`O=c1cc(-c2ccc(O)cc2)oc2ccccc12` returned a melting point of 177 to 180 °C.

With `CCOC(=O)c1ccc(NC(=O)C=C(c2ccc(Cl)cc2)c2ccc(Cl)cc2)cc1`, the melting point is 207 to 209 °C.

`OCc1cccc2nc(N3CCCCC3)sc12`: the melting point fell in the range of 107 to 108 °C.

Consider `CCOC(=O)Cc1ccc(NC(=O)C(CCO)NS(=O)(=O)c2ccc(Cl)cc2)cc1` (racemic), for which the melting point was 164 to 167 °C.

In turn, `CNCCC1CCc2cc(OCc3ccc(-c4ccccc4)cc3)ccc2C1` (stereo not given) registered a melting point of 75 to 76 °C.

As to `CC(=O)N(C(C)=O)c1nsc2ccccc12`, the melting point fell in the range of 65 to 67 °C.

With `COC(=O)c1scc(-c2ccccc2)c1-c1ccc(S(=O)(=O)COC(C)=O)c(F)c1`, the melting point is 165 °C.

In turn, `O=C1NCN(c2ccccc2)C12CCN(CC1CCc3ccc(F)cc3C1O)CC2` (stereo not given) displayed a melting point of 210 to 212 °C.

In the case of `CC(C)CCCC(C)C1CCC2C3CC=C4CC(OC(=O)OCC(N)C(=O)O)CCC4(C)C3CCC12C` (stereo not given), the melting point turned out to be 147 °C.

`CC(Oc1ccc(Cl)c(Cl)c1)c1ccnc2ncnn12` (stereo not given) came in with a melting point of 146 to 149 °C.

On to `CC(=O)Nc1ccc(N)c(C(O)c2ccccc2Cl)c1` (stereo not given), for which the melting point was in the range of 137 to 138 °C.

The compound `CC(C)(COc1ccc([N+](=O)[O-])cc1)N1CC(COc2cccc(Cl)c2)OC1=O` (stereo not given) came in with a melting point of 108 to 112 °C.

For the compound `CCCN(CCC)c1nc2c(N3CCCC3)nccc2c(=O)[nH]1`, the melting point was determined as 220 °C.

`O=C(NC1(C(=O)O)CCCC1)C(CS)Cc1ccccc1` (stereo not given) registered a melting point of 165 to 167 °C.

Regarding `CN1Cc2c(-c3cccs3)ncn2-c2cccc(Cl)c2C1=O`, the melting point fell in the range of 222 to 223 °C.

Consider `Clc1ccc2c(C3CCN(CCCC4Cc5ccccc5C4)CC3)c[nH]c2c1`, for which the melting point fell in the range of 134 to 135 °C.

On to `COc1ccc2cc(CN(C)C(=O)c3oc4ccccc4c3C)ccc2c1Br`, for which the melting point fell in the range of 138 to 140 °C.

With `O=C(NCCCc1ccncc1)N(CCC(F)(F)F)CCC12CC3CC(CC(C3)C1)C2`, the melting point is 108 to 109 °C.

For `CCCOc1ccc(C(=O)Nc2ccccc2NC(=O)c2ccc(OCCC)cc2)cc1`, the melting point amounted to 195 °C.

The compound `COc1ccnc(CCc2nc3cc(-c4ccoc4)cnc3[nH]2)c1` gave a melting point of 193 to 194 °C.

`COC(=O)c1cc2cc(C(=O)c3cccc(CC#N)c3)sc2s1` had a melting point of 184 °C.

With `COc1cc(Cc2cnc(NCCSCc3nc[nH]c3C)[nH]c2=O)ccn1`, the melting point lay in the range of 177 to 178 °C.

Regarding `O=C(c1cc(-c2ccccc2)c(N2CCOCC2)s1)c1ccc(Cl)cc1Cl`, the melting point is 198 to 199 °C.

`Nc1c(OCCCBr)cccc1[N+](=O)[O-]` came in with a melting point of 88 to 89 °C.

As to `CCOC(=O)N(Cn1cc(Cl)cnc1=O)c1ccccc1`, the melting point is 174 °C.

Turning to `Cc1cc(O)c(SCCc2ccccc2)c(=O)o1`, the melting point lay within 100 to 101 °C.

Take `COc1cc(OC)cc(-c2nc[nH]c2-c2ccc(OC)c(O)c2O)c1`: the melting point fell in the range of 132 to 134 °C.

The compound `CC(=O)C(=Cc1cc(O)c(O)c([N+](=O)[O-])c1)C(C)=O` registered a melting point of 175 to 178 °C.

Compound `O=C(O)CCCOC(c1ccccc1)(c1ccccc1)c1ccccc1` returned a melting point of 137 to 140 °C.

On to `c1ccc2c(c1)C[C@H]1Cc3ccccc3[C@H]1O2` (relative stereo), for which the melting point was in the range of 59 to 60 °C.

In turn, `COC(=O)c1ccc(-c2nc(NCc3ccc4c(c3)OCO4)c3c4c(sc3n2)CCCC4)cc1` showed a melting point of 198 °C.

The compound `Nc1cc(Cl)ccc1CO` returned a melting point of 104 to 105 °C.

With `CSc1cc2[nH]ccc2cc1F`, the melting point amounted to 51 °C.

In turn, `CNC(=O)CCNC(=O)NOCCCl` came in with a melting point of 125 to 126 °C.

`CNC(=O)c1ccc(C2=NOC(c3cc(Cl)cc(Cl)c3)(C(F)(F)F)C2)cc1C` (stereo not given) gave a melting point of 184 to 185 °C.

`Cc1ccccc1-c1nc(N)ncc1-c1ccc(=O)n(C(C)C)n1` came in with a melting point of 203 °C.

With `Cn1c(-c2ccc(OCC(O)CNC(C)(C)C)cc2)cc2ccccc2c1=O` (stereo not given), the melting point fell in the range of 130 to 132 °C.

In turn, `O=C(CN(C(=O)CCl)C1Cc2ccccc2C1)OCc1ccccc1` registered a melting point of 99.5 to 100 °C.

`Cc1nn(C)c2c1N(C(=O)CN(C(C)C)C(C)C)c1ccccc1NC2=O` returned a melting point of 154 to 156 °C.

Compound `CC1(C)C(=O)N(c2ccc([N+](=O)[O-])c(C(F)(F)F)c2)C(=O)N1CC=CCN1C(=O)N(c2ccc([N+](=O)[O-])c(C(F)(F)F)c2)C(=O)C1(C)C` yielded a melting point of 191 to 193 °C.

Compound `CC(C#N)(COc1cc(C#N)ccc1C(F)(F)F)NC(=O)c1ccc(SC(F)(F)F)cc1` (stereo not given) returned a melting point of 126 to 127 °C.

Compound `O=Cc1cnc(Br)cn1` had a melting point of 56 to 58 °C.

Consider `CCC(CC)C1CC1(CN)C(=O)O` (stereo not given), for which the melting point is 255 to 257 °C.

In the case of `CC(C)(C)c1cc(N2CCCC2=O)cc(C(C)(C)C)c1O`, the melting point is 173 to 175 °C.

For the compound `CC(C)[C@H]1C(=O)OCN1C(=O)OCc1ccccc1`, the melting point lay in the range of 54 to 55 °C.

Compound `Cc1c(N)c(C)c(Cc2ccc(C(C)C)cc2)c2c1CCO2` gave a melting point of 114 to 115 °C.

The compound `C1CCc2c(c3c(N4CCCC4)nc(N4CCCC4)nc3n2CCN2CCOCC2)C1` registered a melting point of 132 to 133 °C.

Compound `CCCCc1ncc(CC(=O)NCC(=O)O)n1Cc1ccccc1Cl` yielded a melting point of 84 to 88 °C.

The compound `Nc1ccn(CC2CC2)c(=O)n1` gave a melting point of 264 to 266 °C.

In the case of `COc1ccc(-n2nc(CBr)cc2-c2ccc(Cl)cc2)cc1`, the melting point was in the range of 88 to 90 °C.

On to `CN(C(=O)c1ccc(Cn2cnc3c(Cl)nc(Cl)nc32)cc1)C1CCCCC1`, for which the melting point lay in the range of 134 to 136 °C.

On to `COC(=O)C1=C(C)Nc2nccn2C1c1cccc(C(C)=O)c1` (stereo not given), for which the melting point was 227 to 229 °C.

`CCCCOc1ccc(NC(=O)c2cnc(C(=O)O)c(OC)c2)cc1` came in with a melting point of 128 to 130 °C.

`Nc1c(Cl)cc(C(=O)OC2CCN(CCCC(=O)c3ccc4[nH]c(=O)[nH]c4c3)CC2)c2c1CCO2`: the melting point is 273 °C.

In the case of `COc1ccc(C(=O)Nc2ccccc2)cc1NC(=S)Nc1cccc([N+](=O)[O-])c1`, the melting point was in the range of 188 to 189 °C.

Turning to `COc1ccc2cc(C(=O)[C@H](C)OS(=O)(=O)c3ccccc3)ccc2c1`, the melting point is 74 to 75 °C.

In turn, `CCCOc1cc(C)cnc1CCCCNc1ncc(Cc2ccc(C)nc2)c(=O)[nH]1` gave a melting point of 81 to 85 °C.

With `CCCC[C@@H](NC(=O)[C@H](Cc1ccc(O)cc1)NC(=O)OC(C)(C)C)C(=O)NCC(=O)OCc1ccccc1`, the melting point was determined as 122 °C.

For the compound `CS(=O)(=O)c1ccc(-c2[nH]c3ccc(Cl)cc3c2-c2ccc(Cl)cc2)cc1`, the melting point lay in the range of 281 to 283 °C.

For `O=C(Nc1cccc(C(F)(F)F)c1)c1ccccc1O`, the melting point is 188 to 191 °C.

In the case of `COc1cc(C(C)NC(=O)OCC2c3ccccc3-c3ccccc32)c([N+](=O)[O-])cc1OCCCC(=O)O` (stereo not given), the melting point lay in the range of 200 to 201 °C.

`COC(=O)c1cccc(C(=O)CC(=O)c2ccccc2)c1` yielded a melting point of 106 to 108 °C.

`CC(N)=CC(=O)C1=C(C)CCCC1(C)C` gave a melting point of 124 to 125 °C.

Take `CC(C)c1csc(CO)n1`: the melting point is 80 to 82 °C.

`COc1cc(C(=O)NS(=O)(=O)c2ccccc2C)ccc1CN1CCOc2ccc(NC(=O)CC3CCCC3)cc21` registered a melting point of 207 to 208 °C.

`CCc1c(Br)c2ccccn2c1C(=O)c1cc(Br)c(O)c(Br)c1` came in with a melting point of 195 °C.

Regarding `Nc1c(-c2csc(-c3ccncc3)n2)c(=O)[nH]c2ccc(N3CCCCC3)cc12`, the melting point was 199 to 202 °C.

For the compound `CNC(=O)OC1CC(C)(C)N(C)C(C)(C)C1`, the melting point fell in the range of 96 to 97 °C.

As for `CC1=NC(C)c2nnc(-c3ccc(Cl)cc3)n2-c2ccccc21` (stereo not given), the melting point came out at 230 °C.

Compound `COCc1ccc(-c2ccc3nnn(Cc4ccc5ncccc5c4)c3n2)cc1F` came in with a melting point of 200 to 201 °C.

Compound `CN(C)C=Nc1ncc(I)c(Cl)n1` showed a melting point of 99 to 100 °C.

Regarding `COC1CCC2C3CCC4CC(=O)C(C)(C)CC4(C)C3CCC12C` (stereo not given), the melting point fell in the range of 116 to 120 °C.

In the case of `CONCc1nc2c(N)nc3ccccc3c2n1CC1(O)CCC1`, the melting point lay in the range of 178 to 181 °C.

Turning to `Cc1nc(C)nc(-c2cccc(-c3ccccc3C)n2)n1`, the melting point was 86.8 °C.

`CCOC(=O)Nc1ccn2cc(C)nc2c1Br` came in with a melting point of 137 to 138 °C.

`COC(/C=C/c1cccc(Cl)c1)=N/c1ccc(C(O)c2cncn2Cc2ccc(C#N)cc2)cc1` (stereo not given) had a melting point of 192 °C.

For `COc1ccc([C@H]2SC=C(c3ccccc3)N(CCN(C)C)C(=O)[C@H]2O)cc1`, the melting point fell in the range of 110 to 112 °C.

In turn, `CCOc1ccc2c(c1)C(=O)CCC2` showed a melting point of 34 to 36 °C.
